# Assay results: ChEMBL document CHEMBL2390893, “Natural product hybrid and its superacid synthesized analogues: dodoneine and its derivatives show selective inhibition of carbonic anhydrase isoforms I, III, XIII and XIV” (Bioorg Med Chem, 2013)
# Calls of active or inactive are those of the source. No cut-off for these calls is given here.
# Columns and labels:
# Carbonic anhydrase 9 [1] = molecular target: T1, Carbonic anhydrase 9 (Homo sapiens, UniProt Q16790); experiment: Inhibition of human carbonic anhydrase 9 preincubated for 15 mins by stopped flow CO2 hydrase assay
# Carbonic anhydrase 12 [2] = molecular target: T2, Carbonic anhydrase 12 (Homo sapiens, UniProt O43570); experiment: Inhibition of human carbonic anhydrase 12 preincubated for 15 mins by stopped flow CO2 hydrase assay
# T2 sequence (O43570 whole entry): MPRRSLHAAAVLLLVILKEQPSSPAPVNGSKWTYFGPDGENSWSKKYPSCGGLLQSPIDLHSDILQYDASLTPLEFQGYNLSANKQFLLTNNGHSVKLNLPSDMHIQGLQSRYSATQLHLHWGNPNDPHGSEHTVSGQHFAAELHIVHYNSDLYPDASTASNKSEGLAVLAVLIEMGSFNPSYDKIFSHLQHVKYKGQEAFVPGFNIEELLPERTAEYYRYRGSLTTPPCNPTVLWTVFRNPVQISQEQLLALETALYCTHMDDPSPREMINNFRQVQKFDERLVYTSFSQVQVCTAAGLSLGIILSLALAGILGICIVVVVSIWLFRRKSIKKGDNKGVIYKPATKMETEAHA
# Carbonic anhydrase 2 [3] = molecular target: T3, Carbonic anhydrase 2 (Homo sapiens, UniProt P00918); experiment: Inhibition of human carbonic anhydrase 2 preincubated for 15 mins by stopped flow CO2 hydrase assay
# Carbonic anhydrase 1 [4] = molecular target: T4, Carbonic anhydrase 1 (Homo sapiens, UniProt P00915); experiment: Inhibition of human carbonic anhydrase 1 preincubated for 15 mins by stopped flow CO2 hydrase assay
# Target sequence in this assay (P00915 whole entry): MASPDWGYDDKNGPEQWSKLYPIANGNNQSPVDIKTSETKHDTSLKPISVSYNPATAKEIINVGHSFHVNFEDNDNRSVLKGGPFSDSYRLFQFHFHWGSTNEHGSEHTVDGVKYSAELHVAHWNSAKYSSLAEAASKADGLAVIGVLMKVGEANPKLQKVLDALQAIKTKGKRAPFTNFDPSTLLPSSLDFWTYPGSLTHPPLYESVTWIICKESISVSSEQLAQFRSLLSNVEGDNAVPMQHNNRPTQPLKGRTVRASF
# Carbonic anhydrase 14 [5] = molecular target: T5, Carbonic anhydrase 14 (Homo sapiens, UniProt Q9ULX7); experiment: Inhibition of human carbonic anhydrase 14 preincubated for 15 mins by stopped flow CO2 hydrase assay
# T5 sequence (Q9ULX7 whole entry): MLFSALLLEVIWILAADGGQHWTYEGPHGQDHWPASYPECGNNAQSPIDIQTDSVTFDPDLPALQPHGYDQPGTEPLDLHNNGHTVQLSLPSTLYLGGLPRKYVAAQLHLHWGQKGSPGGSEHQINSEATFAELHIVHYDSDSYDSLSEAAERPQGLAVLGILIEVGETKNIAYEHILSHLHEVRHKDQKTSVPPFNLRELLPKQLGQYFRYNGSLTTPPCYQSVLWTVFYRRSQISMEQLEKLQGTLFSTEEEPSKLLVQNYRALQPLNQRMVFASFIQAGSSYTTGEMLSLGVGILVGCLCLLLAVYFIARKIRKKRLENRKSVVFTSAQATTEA
# Carbonic anhydrase 13 = Carbonic anhydrase 13 (Mus musculus, UniProt Q9D6N1); experiment: Inhibition of mouse carbonic anhydrase 13 preincubated for 15 mins by stopped flow CO2 hydrase assay
# Carbonic anhydrase 13, sequence (Q9D6N1 whole entry): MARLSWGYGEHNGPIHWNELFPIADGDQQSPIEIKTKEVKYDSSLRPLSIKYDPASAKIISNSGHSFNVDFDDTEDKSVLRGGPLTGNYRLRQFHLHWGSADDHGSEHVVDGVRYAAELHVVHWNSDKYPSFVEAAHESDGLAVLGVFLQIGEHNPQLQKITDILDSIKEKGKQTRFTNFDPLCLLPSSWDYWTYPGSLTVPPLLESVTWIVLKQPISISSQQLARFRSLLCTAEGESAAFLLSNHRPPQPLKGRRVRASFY
# Carbonic anhydrase 4 [6] = molecular target: T6, Carbonic anhydrase 4 (Homo sapiens, UniProt P22748); experiment: Inhibition of human carbonic anhydrase 4 preincubated for 15 mins by stopped flow CO2 hydrase assay
# T6 sequence (P22748 whole entry): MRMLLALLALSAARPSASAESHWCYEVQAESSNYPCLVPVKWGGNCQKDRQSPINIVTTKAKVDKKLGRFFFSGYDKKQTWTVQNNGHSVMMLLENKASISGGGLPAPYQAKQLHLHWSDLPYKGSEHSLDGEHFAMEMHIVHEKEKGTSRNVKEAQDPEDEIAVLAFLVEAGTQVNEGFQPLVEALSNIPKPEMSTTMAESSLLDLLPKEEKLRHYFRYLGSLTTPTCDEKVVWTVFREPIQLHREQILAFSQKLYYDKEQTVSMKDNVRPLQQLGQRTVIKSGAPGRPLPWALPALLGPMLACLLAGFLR
# Carbonic anhydrase 7 [7] = molecular target: T7, Carbonic anhydrase 7 (Homo sapiens, UniProt P43166); experiment: Inhibition of human carbonic anhydrase 7 at >100 uM preincubated for 15 mins by stopped flow CO2 hydrase assay
# T7 sequence (P43166 whole entry): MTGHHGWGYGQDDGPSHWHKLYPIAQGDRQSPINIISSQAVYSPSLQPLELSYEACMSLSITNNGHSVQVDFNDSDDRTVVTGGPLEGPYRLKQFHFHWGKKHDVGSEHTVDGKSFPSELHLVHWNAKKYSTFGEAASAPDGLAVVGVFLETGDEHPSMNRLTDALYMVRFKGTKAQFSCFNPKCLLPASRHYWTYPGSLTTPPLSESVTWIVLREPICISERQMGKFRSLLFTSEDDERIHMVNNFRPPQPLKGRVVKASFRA
# [8] = molecular target: Carbonic anhydrase 6 (Homo sapiens) (UniProt P23280); experiment: Inhibition of human carbonic anhydrase 6 at >100 uM preincubated for 15 mins by stopped flow CO2 hydrase assay
# Carbonic anhydrase 6 (Homo sapiens), sequence (P23280 whole entry): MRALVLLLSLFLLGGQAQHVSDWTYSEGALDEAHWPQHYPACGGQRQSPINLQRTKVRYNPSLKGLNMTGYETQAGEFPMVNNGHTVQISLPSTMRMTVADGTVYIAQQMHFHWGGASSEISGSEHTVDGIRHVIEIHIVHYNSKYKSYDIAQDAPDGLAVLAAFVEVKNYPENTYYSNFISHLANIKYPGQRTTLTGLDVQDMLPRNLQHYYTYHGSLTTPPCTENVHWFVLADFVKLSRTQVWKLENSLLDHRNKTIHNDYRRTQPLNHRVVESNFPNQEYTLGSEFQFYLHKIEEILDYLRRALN
# [9] = molecular target: T8, Carbonic anhydrase 5A, mitochondrial (Homo sapiens, UniProt P35218); experiment: Inhibition of human carbonic anhydrase 5a preincubated for 15 mins by stopped flow CO2 hydrase assay
# T8 sequence (P35218 whole entry): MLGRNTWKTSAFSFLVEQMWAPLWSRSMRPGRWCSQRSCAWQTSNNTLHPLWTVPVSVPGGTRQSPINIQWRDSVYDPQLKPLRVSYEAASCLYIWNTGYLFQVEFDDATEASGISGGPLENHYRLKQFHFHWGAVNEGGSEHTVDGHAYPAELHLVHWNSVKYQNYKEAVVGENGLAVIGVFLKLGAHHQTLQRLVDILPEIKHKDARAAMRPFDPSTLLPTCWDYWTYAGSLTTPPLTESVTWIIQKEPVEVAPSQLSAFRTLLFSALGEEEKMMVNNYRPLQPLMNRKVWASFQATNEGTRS
# [10] = molecular target: T9, Carbonic anhydrase 5B, mitochondrial (Homo sapiens, UniProt Q9Y2D0); experiment: Inhibition of human carbonic anhydrase 5b preincubated for 15 mins by stopped flow CO2 hydrase assay
# T9 sequence (Q9Y2D0 whole entry): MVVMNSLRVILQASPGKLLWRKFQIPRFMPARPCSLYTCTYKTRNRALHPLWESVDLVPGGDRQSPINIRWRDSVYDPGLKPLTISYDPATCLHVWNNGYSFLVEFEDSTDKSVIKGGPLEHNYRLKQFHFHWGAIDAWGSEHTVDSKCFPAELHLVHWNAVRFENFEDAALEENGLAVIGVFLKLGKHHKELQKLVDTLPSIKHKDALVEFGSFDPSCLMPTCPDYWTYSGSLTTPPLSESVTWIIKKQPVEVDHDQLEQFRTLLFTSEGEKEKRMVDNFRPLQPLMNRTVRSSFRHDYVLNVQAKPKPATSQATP
# Carbonic anhydrase 3 [11] = molecular target: T10, Carbonic anhydrase 3 (Homo sapiens, UniProt P07451); experiment: Inhibition of human carbonic anhydrase 3 at >100 uM preincubated for 15 mins by stopped flow CO2 hydrase assay
# T10 sequence (P07451 whole entry): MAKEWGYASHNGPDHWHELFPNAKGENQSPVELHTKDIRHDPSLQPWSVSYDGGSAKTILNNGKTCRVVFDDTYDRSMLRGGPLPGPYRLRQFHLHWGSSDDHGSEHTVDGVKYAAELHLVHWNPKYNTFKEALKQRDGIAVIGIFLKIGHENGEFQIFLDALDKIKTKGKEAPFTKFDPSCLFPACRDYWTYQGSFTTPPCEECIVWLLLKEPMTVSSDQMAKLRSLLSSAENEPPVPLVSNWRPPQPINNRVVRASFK
# Carbonic anhydrase 3 [12] = molecular target: T10, Carbonic anhydrase 3; experiment: Inhibition of human carbonic anhydrase 3 preincubated for 15 mins by stopped flow CO2 hydrase assay
# Carbonic anhydrase 9 [13] = molecular target: T1, Carbonic anhydrase 9; experiment: Inhibition of human carbonic anhydrase 9 at >100 uM preincubated for 15 mins by stopped flow CO2 hydrase assay
# [14] = molecular target: T8, Carbonic anhydrase 5A, mitochondrial; experiment: Inhibition of human carbonic anhydrase 5a at >100 uM preincubated for 15 mins by stopped flow CO2 hydrase assay
# Carbonic anhydrase 1 [15] = molecular target: T4, Carbonic anhydrase 1; experiment: Inhibition of human carbonic anhydrase 1 at >100 uM preincubated for 15 mins by stopped flow CO2 hydrase assay
# Target sequence in this assay (P00915 2-261 limits assumed): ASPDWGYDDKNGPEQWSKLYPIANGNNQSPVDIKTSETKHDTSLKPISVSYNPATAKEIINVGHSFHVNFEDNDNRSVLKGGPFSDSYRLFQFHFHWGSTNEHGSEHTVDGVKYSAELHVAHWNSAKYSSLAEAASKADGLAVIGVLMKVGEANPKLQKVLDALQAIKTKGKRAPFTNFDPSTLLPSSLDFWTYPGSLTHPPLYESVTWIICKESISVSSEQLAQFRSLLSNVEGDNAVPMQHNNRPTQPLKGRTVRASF
# [16] = molecular target: T9, Carbonic anhydrase 5B, mitochondrial; experiment: Inhibition of human carbonic anhydrase 5b at >100 uM preincubated for 15 mins by stopped flow CO2 hydrase assay
# Carbonic anhydrase 2 [17] = molecular target: T3, Carbonic anhydrase 2; experiment: Inhibition of human carbonic anhydrase 2 at >100 uM preincubated for 15 mins by stopped flow CO2 hydrase assay
# Carbonic anhydrase 4 [18] = molecular target: T6, Carbonic anhydrase 4; experiment: Inhibition of human carbonic anhydrase 4 at >100 uM preincubated for 15 mins by stopped flow CO2 hydrase assay
# Carbonic anhydrase 14 [19] = molecular target: T5, Carbonic anhydrase 14; experiment: Inhibition of human carbonic anhydrase 14 at >100 uM preincubated for 15 mins by stopped flow CO2 hydrase assay
# Carbonic anhydrase 12 [20] = molecular target: T2, Carbonic anhydrase 12; experiment: Inhibition of human carbonic anhydrase 12 at >100 uM preincubated for 15 mins by stopped flow CO2 hydrase assay
# Carbonic anhydrase 7 [21] = molecular target: T7, Carbonic anhydrase 7; experiment: Inhibition of human carbonic anhydrase 7 preincubated for 15 mins by stopped flow CO2 hydrase assay
SMILES,Ki (Carbonic anhydrase 9 [1]),Ki (Carbonic anhydrase 12 [2]),Ki (Carbonic anhydrase 2 [3]),Ki (Carbonic anhydrase 1 [4]),Ki (Carbonic anhydrase 14 [5]),Ki (Carbonic anhydrase 13),Ki (Carbonic anhydrase 4 [6]),inhibition (Carbonic anhydrase 7 [7]),inhibition [8],Ki [9],Ki [10],inhibition (Carbonic anhydrase 3 [11]),Ki (Carbonic anhydrase 3 [12]),inhibition (Carbonic anhydrase 9 [13]),inhibition [14],inhibition (Carbonic anhydrase 1 [15]),inhibition [16],inhibition (Carbonic anhydrase 2 [17]),inhibition (Carbonic anhydrase 4 [18]),inhibition (Carbonic anhydrase 12 [20]),other results
O=C1C=CC[C@H](C[C@@H](O)CCc2cc(Br)c(O)cc2Br)O1,15.7 µM,10.8 µM,21.8 µM,0.76 µM,12.5 µM,7.89 µM,13.7 µM,inactive,inactive,8.55 µM,6.32 µM,inactive,,,,,,,,,
O=C1C=CC[C@H](C[C@H](F)CCc2ccc(O)cc2)O1,3.57 µM,1.48 µM,36.9 µM,0.13 µM,2.44 µM,0.96 µM,5.36 µM,,inactive,7.13 µM,1.36 µM,inactive,,,,,,,,,Ki (Carbonic anhydrase 7 [21]): 24.9 µM
O=C1C=CC[C@H](C[C@@H](O)CCc2ccc(O)cc2O)O1,32.6 µM,24.5 µM,,0.38 µM,7.24 µM,8.13 µM,4.12 µM,inactive,inactive,21.6 µM,13.7 µM,inactive,,,,,,inactive,,,
O=C1C=CC[C@H](C[C@@H](O)CCc2ccc(O)cc2)O1,,,,5.48 µM,9.34 µM,9.27 µM,9.61 µM,inactive,inactive,,,,10.3 µM,inactive,inactive,,inactive,inactive,,inactive,

# Molecules with a lower Ki (Carbonic anhydrase 13), results first:
Ki (Carbonic anhydrase 9 [1]),Ki (Carbonic anhydrase 12 [2]),Ki (Carbonic anhydrase 2 [3]),Ki (Carbonic anhydrase 1 [4]),Ki (Carbonic anhydrase 14 [5]),Ki (Carbonic anhydrase 13),Ki (Carbonic anhydrase 4 [6]),inhibition (Carbonic anhydrase 7 [7]),inhibition [8],Ki [9],Ki [10],inhibition (Carbonic anhydrase 3 [11]),Ki (Carbonic anhydrase 3 [12]),inhibition (Carbonic anhydrase 9 [13]),inhibition [14],inhibition (Carbonic anhydrase 1 [15]),inhibition [16],inhibition (Carbonic anhydrase 2 [17]),inhibition (Carbonic anhydrase 4 [18]),inhibition (Carbonic anhydrase 12 [20]),SMILES,other results
,,,,,0.91 µM,,inactive,inactive,,,,10.8 µM,inactive,inactive,inactive,inactive,inactive,inactive,inactive,O=C1C[C@H]2C[C@H](C[C@H](CCc3ccc(O)cc3)O2)O1,inhibition (Carbonic anhydrase 14 [19]): inactive
,,,,,0.34 µM,,inactive,inactive,,,,5.13 µM,inactive,inactive,inactive,inactive,inactive,inactive,inactive,O=C1C[C@H]2C[C@H](C[C@H](CCc3ccc(O)cc3O)O2)O1,inhibition (Carbonic anhydrase 14 [19]): inactive
